Legend:
Format in all cases: biochemical
B-Raf V600E = target: T1, B-Raf V600E (Homo sapiens, UniProt P15056, V600E); test: AlphaScreen kinase assay, B-Raf V600E; settings: read-out: IC50, activity toward kinase B-Raf V600E
T1 construct: P4254. pFastBacBD-CDC37 BRAF D437-K722-X, V600E; His6 with pFastBac HT leader (TEV site) (N); made in house; host or cells: Sf9 (baculovirus; chaperone CDC37 co-expressed)

Btk = target: T2, Btk (Homo sapiens, UniProt Q06187); test: Z'-Lyte FRET kinase assay (Invitrogen), Btk; settings: read-out: IC50, activity toward kinase Btk
T2 construct: purchased Invitrogen (assay run by Invitrogen)

Yes = target: T3, Yes (Homo sapiens, UniProt P07947); test: Z'-Lyte FRET kinase assay (Invitrogen), Yes; settings: read-out: IC50, activity toward kinase Yes
T3 construct: purchased Invitrogen (Carlsbad, Calif.), screening service
How it was run: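 Serially diluted compound (final 1% DMSO) incubated 1 h at room temperature with kinase, 2 μM FRET peptide and 10 μM ATP in pH 7.5 HEPES buffer. Site-specific protease then cleaves unphosphorylated peptide (1 h); inhibition read as increased coumarin-to-fluorescein emission ratio.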

Ret = target: T4, Ret (Homo sapiens, UniProt P07949); test: AlphaScreen kinase assay, Ret; settings: read-out: IC50, activity toward kinase Ret
T4 construct: P1378.pET-SF BI-PTP RET H661-R1012 HIS; made in house
T4 sequence (P07949 with tags, fused parts or gaps): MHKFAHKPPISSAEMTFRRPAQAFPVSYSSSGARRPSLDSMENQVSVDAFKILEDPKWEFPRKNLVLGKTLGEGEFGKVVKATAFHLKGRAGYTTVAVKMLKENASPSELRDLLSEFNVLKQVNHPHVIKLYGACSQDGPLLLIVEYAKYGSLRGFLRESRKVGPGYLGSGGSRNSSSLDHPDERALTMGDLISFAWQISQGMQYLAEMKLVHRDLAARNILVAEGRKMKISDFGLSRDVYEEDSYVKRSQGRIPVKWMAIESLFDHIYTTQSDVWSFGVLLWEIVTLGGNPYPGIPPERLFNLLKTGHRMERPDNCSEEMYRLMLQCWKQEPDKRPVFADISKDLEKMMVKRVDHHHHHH

B-Raf = target: T5, B-Raf (Homo sapiens, UniProt P15056); test: AlphaScreen kinase assay, B-Raf; settings: read-out: IC50, activity toward kinase B-Raf
T5 construct: purchased Upstate Biotechnology

Kdr = target: T6, Kdr (Homo sapiens, UniProt P35968); test: Z'-Lyte FRET kinase assay (Invitrogen), Kdr; settings: read-out: IC50, activity toward kinase Kdr
T6 construct: purchased Invitrogen (assay run by Invitrogen)

FGFR1 = target: T7, FGFR1 (Homo sapiens, UniProt P11362, C488A/C584S); test: AlphaScreen kinase assay, FGFR1; settings: read-out: IC50, activity toward kinase FGFR
T7 construct: P1351.pET N6 BI-PTP FGFR A458-E765-X C488A, C584S; made in house; host or cells: E. coli (PTP1B co-expressed)

Measured: IC50

T6 sequence (P35968 20-1356): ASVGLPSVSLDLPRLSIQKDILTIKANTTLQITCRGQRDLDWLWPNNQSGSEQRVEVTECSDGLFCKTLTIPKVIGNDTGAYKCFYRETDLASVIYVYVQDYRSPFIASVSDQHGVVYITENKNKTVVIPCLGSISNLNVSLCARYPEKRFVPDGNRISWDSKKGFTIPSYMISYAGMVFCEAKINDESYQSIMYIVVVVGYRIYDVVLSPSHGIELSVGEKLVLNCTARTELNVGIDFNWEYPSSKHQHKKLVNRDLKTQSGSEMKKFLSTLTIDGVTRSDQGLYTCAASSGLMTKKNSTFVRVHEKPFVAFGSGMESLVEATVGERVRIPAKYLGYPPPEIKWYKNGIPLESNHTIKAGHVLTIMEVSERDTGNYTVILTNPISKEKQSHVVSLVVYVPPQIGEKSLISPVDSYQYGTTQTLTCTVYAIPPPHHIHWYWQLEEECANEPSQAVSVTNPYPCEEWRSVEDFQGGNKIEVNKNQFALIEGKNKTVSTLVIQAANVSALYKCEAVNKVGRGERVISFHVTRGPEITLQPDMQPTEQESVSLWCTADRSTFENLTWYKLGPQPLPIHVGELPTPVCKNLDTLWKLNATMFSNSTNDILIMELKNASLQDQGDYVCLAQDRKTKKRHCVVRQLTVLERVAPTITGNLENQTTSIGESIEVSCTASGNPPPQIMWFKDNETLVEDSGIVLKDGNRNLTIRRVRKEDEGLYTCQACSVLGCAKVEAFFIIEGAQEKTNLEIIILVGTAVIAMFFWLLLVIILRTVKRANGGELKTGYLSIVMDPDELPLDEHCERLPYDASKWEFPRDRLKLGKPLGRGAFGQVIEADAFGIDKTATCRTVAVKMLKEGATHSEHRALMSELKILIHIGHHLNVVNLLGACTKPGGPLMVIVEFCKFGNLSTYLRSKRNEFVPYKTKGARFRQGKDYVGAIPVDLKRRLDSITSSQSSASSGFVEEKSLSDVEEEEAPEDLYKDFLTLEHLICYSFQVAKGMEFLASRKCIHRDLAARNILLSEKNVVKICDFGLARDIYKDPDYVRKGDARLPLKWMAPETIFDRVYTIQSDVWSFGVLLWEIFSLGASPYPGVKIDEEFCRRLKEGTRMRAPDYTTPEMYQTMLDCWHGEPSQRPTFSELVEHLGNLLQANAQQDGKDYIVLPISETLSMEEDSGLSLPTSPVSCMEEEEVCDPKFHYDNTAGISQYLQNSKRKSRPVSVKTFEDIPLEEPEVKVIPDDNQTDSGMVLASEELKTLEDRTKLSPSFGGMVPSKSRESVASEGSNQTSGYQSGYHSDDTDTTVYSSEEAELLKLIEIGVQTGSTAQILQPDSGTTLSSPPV
T5 sequence (P15056 whole entry): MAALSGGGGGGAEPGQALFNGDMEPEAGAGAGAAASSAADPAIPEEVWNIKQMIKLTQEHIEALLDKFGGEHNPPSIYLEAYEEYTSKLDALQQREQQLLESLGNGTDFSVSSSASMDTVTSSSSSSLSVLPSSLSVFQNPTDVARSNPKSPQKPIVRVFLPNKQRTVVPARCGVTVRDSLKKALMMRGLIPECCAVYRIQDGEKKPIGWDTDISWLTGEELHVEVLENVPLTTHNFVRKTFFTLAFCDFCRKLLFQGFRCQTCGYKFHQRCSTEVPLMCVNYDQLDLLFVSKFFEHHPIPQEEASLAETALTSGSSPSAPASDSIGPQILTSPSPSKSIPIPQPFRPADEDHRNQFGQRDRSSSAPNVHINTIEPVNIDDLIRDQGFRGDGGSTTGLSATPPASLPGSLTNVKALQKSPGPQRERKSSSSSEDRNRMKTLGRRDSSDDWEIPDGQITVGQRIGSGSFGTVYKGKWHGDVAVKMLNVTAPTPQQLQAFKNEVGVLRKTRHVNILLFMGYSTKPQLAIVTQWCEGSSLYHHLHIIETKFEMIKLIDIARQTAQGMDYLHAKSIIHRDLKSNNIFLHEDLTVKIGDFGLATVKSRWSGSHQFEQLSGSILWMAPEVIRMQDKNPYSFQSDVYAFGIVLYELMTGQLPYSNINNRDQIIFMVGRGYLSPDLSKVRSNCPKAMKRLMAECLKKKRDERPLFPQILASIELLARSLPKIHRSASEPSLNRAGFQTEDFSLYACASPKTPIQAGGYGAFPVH
T3 sequence (P07947 whole entry): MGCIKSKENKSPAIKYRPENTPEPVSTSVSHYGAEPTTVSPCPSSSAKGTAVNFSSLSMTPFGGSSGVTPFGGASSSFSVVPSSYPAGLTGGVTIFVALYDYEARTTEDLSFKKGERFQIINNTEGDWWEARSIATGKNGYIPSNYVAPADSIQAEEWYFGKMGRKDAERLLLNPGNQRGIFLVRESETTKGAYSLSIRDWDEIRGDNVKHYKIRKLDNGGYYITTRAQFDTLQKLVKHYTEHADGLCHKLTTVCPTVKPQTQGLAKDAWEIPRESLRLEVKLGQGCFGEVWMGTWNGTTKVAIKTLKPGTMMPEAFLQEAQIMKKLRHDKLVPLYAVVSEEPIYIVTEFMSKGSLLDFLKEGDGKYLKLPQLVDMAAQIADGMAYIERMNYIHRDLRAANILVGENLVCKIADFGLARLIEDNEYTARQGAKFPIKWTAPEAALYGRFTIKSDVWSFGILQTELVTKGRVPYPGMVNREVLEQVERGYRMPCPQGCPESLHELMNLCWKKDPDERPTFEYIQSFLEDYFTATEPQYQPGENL
T2 sequence (Q06187 whole entry): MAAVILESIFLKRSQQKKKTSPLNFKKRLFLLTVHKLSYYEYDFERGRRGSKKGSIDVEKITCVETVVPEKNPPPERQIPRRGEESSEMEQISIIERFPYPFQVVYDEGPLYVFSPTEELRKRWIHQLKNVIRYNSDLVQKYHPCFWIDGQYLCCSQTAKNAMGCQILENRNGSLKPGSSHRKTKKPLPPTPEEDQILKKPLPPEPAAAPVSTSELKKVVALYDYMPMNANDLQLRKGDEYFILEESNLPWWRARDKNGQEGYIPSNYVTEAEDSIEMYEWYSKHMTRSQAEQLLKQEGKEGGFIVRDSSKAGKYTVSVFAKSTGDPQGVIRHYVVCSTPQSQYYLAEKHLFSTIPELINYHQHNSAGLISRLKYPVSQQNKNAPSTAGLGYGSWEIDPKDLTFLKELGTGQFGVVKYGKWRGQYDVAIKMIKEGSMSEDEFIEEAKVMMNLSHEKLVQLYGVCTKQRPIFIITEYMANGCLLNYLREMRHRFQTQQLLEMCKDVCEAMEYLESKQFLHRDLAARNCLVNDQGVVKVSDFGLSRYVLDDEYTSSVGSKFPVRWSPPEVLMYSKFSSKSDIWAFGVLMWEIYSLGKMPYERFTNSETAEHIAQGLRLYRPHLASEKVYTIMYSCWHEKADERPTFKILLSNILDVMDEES
T7 sequence (P11362 458-765 C488A/C584S): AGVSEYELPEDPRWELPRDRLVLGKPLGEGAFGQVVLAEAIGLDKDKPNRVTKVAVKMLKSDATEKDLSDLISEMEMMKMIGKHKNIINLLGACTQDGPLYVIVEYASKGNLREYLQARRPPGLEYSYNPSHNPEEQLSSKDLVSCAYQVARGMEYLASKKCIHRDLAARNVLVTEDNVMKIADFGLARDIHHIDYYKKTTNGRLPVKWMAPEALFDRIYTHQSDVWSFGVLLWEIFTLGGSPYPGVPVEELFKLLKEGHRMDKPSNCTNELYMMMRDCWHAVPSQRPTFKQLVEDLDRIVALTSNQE
T1 sequence (P15056 with tags, fused parts or gaps V600E): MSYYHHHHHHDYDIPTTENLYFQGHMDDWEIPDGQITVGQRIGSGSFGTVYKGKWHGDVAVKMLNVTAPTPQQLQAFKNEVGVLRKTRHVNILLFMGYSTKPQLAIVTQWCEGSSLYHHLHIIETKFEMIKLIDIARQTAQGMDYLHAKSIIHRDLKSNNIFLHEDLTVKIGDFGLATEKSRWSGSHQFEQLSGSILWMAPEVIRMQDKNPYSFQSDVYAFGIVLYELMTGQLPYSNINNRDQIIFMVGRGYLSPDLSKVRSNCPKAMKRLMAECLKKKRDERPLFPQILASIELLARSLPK

CS(=O)(=O)Nc1cccc(-c2ccnc3[nH]cc(C(=O)c4cc(F)ccc4F)c23)c1 [Compound P-0060]
not listed: FGFR1
≤ 10 µM: all other assays above

CCCS(=O)(=O)Nc1ccc(F)c(C(=O)c2c[nH]c3ncc(-c4cccnc4)cc23)c1F [Compound P-0088, Propane-1-sulfonic acid [2,4-difluoro-3-(5-pyridin-3-yl-1H-pyrrolo[2,3-b]pyridine-3-carbonyl)-phenyl]-amide]
≤ 10 µM: all assays above

O=C(c1cccc(O)c1F)c1c[nH]c2ncc(-c3cccnc3)cc12 [Compound P-0027, (2-Fluoro-3-hydroxy-phenyl)-(5-pyridin-3-yl-1H-pyrrolo[2,3-b]pyridin-3-yl)-methanone]
≤ 10 µM: all assays above

Cc1ccc(F)cc1C(=O)c1c[nH]c2ncc(-c3ccc(C(N)=O)cc3)cc12 [Compound P-0050]
≤ 10 µM: all assays above

O=C(c1cccc(O)c1)c1c[nH]c2ncc(Br)cc12 [Compound P-0019]
≤ 10 µM: all assays above

Cc1c(O)cccc1C(=O)c1c[nH]c2ncc(Br)cc12 [Compound P-0055, (5-Bromo-1H-pyrrolo[2,3-b]pyridin-3-yl)-(3-hydroxy-2-methyl-phenyl)-methanone]
≤ 10 µM: all assays above

Oc1cccc(Cc2c[nH]c3ncc(-c4cccs4)cc23)c1F [Compound P-0052, 2-Fluoro-3-(5-thiophen-2-yl-1H-pyrrolo[2,3-b]pyridin-3-ylmethyl)-phenol]
≤ 10 µM: all assays above

O=C(c1cc(O)ccc1F)c1c[nH]c2ncc(-c3ccccc3)cc12 [Compound P-0045]
≤ 10 µM: all assays above

COc1ccc(F)c(C(=O)c2c[nH]c3ncc(-c4cccnc4)cc23)c1 [Compound P-0090]
≤ 10 µM: all assays above

O=C(c1cc(O)ccc1F)c1c[nH]c2ncccc12 [Compound P-0005]
≤ 10 µM: all assays above

Cc1c(O)cccc1C(=O)c1c[nH]c2ncc(-c3ccccc3)cc12 [Compound P-0016, (3-Hydroxy-2-methyl-phenyl)-(5-phenyl-1H-pyrrolo[2,3b]pyridin-3-yl)-methanone]
≤ 10 µM: all assays above

O=C(c1ccc(O)cc1)c1c[nH]c2ncc(-c3cccs3)cc12 [Compound P-0024, (4-Hydroxy-phenyl)-(5-thiophen-2-yl-1H-pyrrolo[2,3-b]pyridin-3-yl)-methanone]
≤ 10 µM: all assays above

Cc1ccc(F)cc1C(=O)c1c[nH]c2ncc(-c3cccc(NS(C)(=O)=O)c3)cc12 [Compound P-0028]
not listed: B-Raf
≤ 10 µM: all other assays above

CS(=O)(=O)c1cccc(-c2cnc3[nH]cc(C(=O)c4c(F)ccc(F)c4F)c3c2)c1 [Compound P-0102, [5-(3-Methanesulfonyl-phenyl)-1H-pyrrolo[2,3-b]pyridin-3-yl]-(2,3,6-trifluoro-phenyl)-methanone]
≤ 10 µM: all assays above

O=C(c1cccc(O)c1)c1c[nH]c2ncccc12 [Compound P-0011]
not listed: B-Raf
≤ 10 µM: all other assays above

COc1ccc(C(=O)c2c[nH]c3ncc(-c4cccc(/C=C/C(=O)O)c4)cc23)c(Cl)c1 [Compound P-0015]
not listed: B-Raf
≤ 10 µM: all other assays above

Cc1c(NS(C)(=O)=O)cccc1C(=O)c1c[nH]c2ncc(-c3ccccc3)cc12 [Compound P-0082, N-[2-Methyl-3-(5-phenyl-1H-pyrrolo[2,3-b]pyridine-3-carbonyl)-phenyl]-methanesulfonamide]
≤ 10 µM: all assays above

From patent publication US8415469B2, “Compounds and methods for kinase modulation, and indications therefor” (Plexxikon Inc., priority 2005, dated 2013)
